Here are results for 16 compounds from PubChem BioAssay (NCI).

Among the test systems are SNB-19 CNS; SR leukemia; OVCAR-3 ovarian; MDA-MB-231 breast; HCT-15 colon; NCI-H522 lung; CAKI-1 renal; NCI-H23 lung; MCF7 breast; MDA-N.
Test in all cases: NCI tumour cell line growth inhibition, 48 h

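96-well plates; 48 h exposure; 5 concentrations. Endpoints by linear interpolation between flanking doses. Not reached: highest tested concentration assigned. Abbreviation: GI50, concentration required for 50% inhibition of growth. TGI marks complete inhibition of growth.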 Bounds are passed on as bounds.

In the case of `c1ccc(Sc2nc(Sc3ccccc3)nc(Sc3ccccc3)n2)cc1`, the TGI in the experiment with SNB-19 CNS was over 100 µM; with SR leukemia it was over 100 µM; with OVCAR-3 ovarian it was 34.5 µM; with MDA-MB-231 breast, over 100 µM; in the experiment on HCT-15 colon, over 100 µM; with NCI-H522 lung, over 100 µM. Moreover, the TGI in the experiment on CAKI-1 renal, with NCI-H23 lung and in the experiment on MCF7 breast was over 100 µM in each case.
Consider `COc1ccc(N2C(=O)C(=O)C3(CCCCC3)C2=O)c(OC)c1OC`, for which the TGI with SNB-19 CNS, in the experiment with SR leukemia, in the experiment on OVCAR-3 ovarian, with HCT-15 colon, in the experiment on NCI-H522 lung and in the experiment with CAKI-1 renal was over 100 µM in each case. Also, the TGI in the experiment with MDA-N, in the experiment with NCI-H23 lung and with MCF7 breast was over 100 µM each time.
Regarding `CC(C)(CO)NC(=O)c1cccs1`, the TGI in the experiment with SNB-19 CNS, with SR leukemia, in the experiment with OVCAR-3 ovarian, with MDA-MB-231 breast, with HCT-15 colon and with NCI-H522 lung was over 100 µM in each case. Besides, the TGI with CAKI-1 renal, in the experiment on NCI-H23 lung and in the experiment with MCF7 breast was over 100 µM in each case.
For `COc1ccc(N2C(=O)C3C=CC(n4[nH]c(=O)n(Cc5ccccc5)c4=O)CC3C2=O)cc1` (centres undefined), the TGI in the experiment with SNB-19 CNS, in the experiment on OVCAR-3 ovarian, in the experiment on HCT-15 colon, with NCI-H522 lung, in the experiment on CAKI-1 renal and in the experiment on NCI-H23 lung was over 100 µM each time.
On to `COC1=CC(c2ccc[nH]2)=N/C1=C\c1[nH]c(C)c(C)c1CCC(=O)OCc1ccccc1`, for which the GI50 was 0.676 µM in the experiment with SNB-19 CNS; 0.175 µM in the experiment with SR leukemia; 0.304 µM with OVCAR-3 ovarian; 0.305 µM with HCT-15 colon; 0.256 µM in the experiment with NCI-H522 lung; 0.3 µM with CAKI-1 renal. In addition, the GI50 in the experiment with NCI-H23 lung was 0.382 µM; in the experiment on MCF7 breast it was 0.293 µM. The TGI was found to be 14 µM in the experiment on SNB-19 CNS; 0.618 µM in the experiment on SR leukemia; 1.35 µM in the experiment with OVCAR-3 ovarian; 1.18 µM in the experiment on HCT-15 colon; 1.62 µM in the experiment on NCI-H522 lung; 2.08 µM with CAKI-1 renal. Moreover, the TGI with NCI-H23 lung turned out to be 2.55 µM; in the experiment on MCF7 breast, 2.19 µM.
As to `COc1ccc(/C=C(\C2=NC(=O)CS2)c2nc3ccccc3[nH]2)cc1`, the TGI in the experiment on SNB-19 CNS was over 100 µM; with SR leukemia it was over 100 µM; in the experiment on OVCAR-3 ovarian, 52.3 µM; in the experiment with HCT-15 colon, over 100 µM; in the experiment on NCI-H522 lung it was 49.7 µM; in the experiment with CAKI-1 renal it was over 100 µM. In the experiment on NCI-H23 lung, the TGI is over 100 µM.
`O=C1C(=O)N(C23CC4CC(CC(C4)C2)C3)C(=S)N1c1ccccc1`: the TGI in the experiment with SNB-19 CNS, with SR leukemia, in the experiment on MDA-MB-231 breast, with HCT-15 colon, in the experiment with NCI-H522 lung and in the experiment on CAKI-1 renal was over 100 µM each time. Besides, the TGI with MDA-N and in the experiment with NCI-H23 lung was over 100 µM each time.
Turning to `CP(=O)(O)C(N)c1ccccc1` (centres undefined), the TGI in the experiment with SNB-19 CNS, in the experiment on SR leukemia, with OVCAR-3 ovarian, with HCT-15 colon, in the experiment with NCI-H522 lung and with CAKI-1 renal was over 100 µM throughout. Also, the TGI in the experiment with MDA-N, with NCI-H23 lung and in the experiment on MCF7 breast was over 100 µM in each case.
Take `CCOC(=O)C1=C(O)c2ccc(OC)cc2C(=O)C1=O`: the TGI with SNB-19 CNS, in the experiment with SR leukemia, in the experiment on OVCAR-3 ovarian, in the experiment with HCT-15 colon, in the experiment with NCI-H522 lung and with CAKI-1 renal was over 100 µM throughout. The same compound registered a TGI in the experiment with NCI-H23 lung of over 100 µM.
For the compound `COc1ccc(Oc2nc3c(N)cc(C(F)(F)F)cc3nc2-c2ccccc2)cc1`, the TGI in the experiment on SNB-19 CNS was over 100 µM; in the experiment on SR leukemia, over 100 µM; with MDA-MB-231 breast, over 100 µM; in the experiment with HCT-15 colon it was over 100 µM; with CAKI-1 renal, 44 µM; in the experiment on NCI-H23 lung, over 100 µM. Besides, the TGI with MCF7 breast is 23.8 µM.
Regarding `COc1cccc2c1C(=O)c1c(O)c3c(c(O)c1C2=O)CC(O)(C(C)=O)CC3O` (centres undefined), the TGI in the experiment on SNB-19 CNS was 32.8 µM; in the experiment on OVCAR-3 ovarian, 23.8 µM; with HCT-15 colon it was 39.8 µM; in the experiment with NCI-H522 lung, 3.09 µM; in the experiment on CAKI-1 renal, 21.8 µM; in the experiment with NCI-H23 lung, 16.4 µM. In the experiment on MCF7 breast, this compound yielded a TGI of 16.2 µM.
Regarding `O=P(Nc1cccc(Cl)c1)(Oc1ccccc1)N(CCCl)CCCl` (centres undefined), the TGI in the experiment on SR leukemia was over 100 µM; with OVCAR-3 ovarian it was 35.7 µM; in the experiment with HCT-15 colon it was 28.7 µM; with NCI-H522 lung, over 100 µM; in the experiment with CAKI-1 renal it was 31.5 µM; in the experiment with NCI-H23 lung, 31.8 µM.
As for `O=C1C(Cl)C(c2ccc([N+](=O)[O-])cc2)N1n1cnc2ccccc2c1=O` (centres undefined), the TGI with SNB-19 CNS, in the experiment with OVCAR-3 ovarian, in the experiment with HCT-15 colon, in the experiment on NCI-H522 lung, with CAKI-1 renal and with NCI-H23 lung was over 100 µM throughout.
As to `COc1ccc(OC)c(-c2cc(=O)c3cc4c(cc3[nH]2)OCO4)c1`, the TGI with SNB-19 CNS is over 100 µM; in the experiment with SR leukemia, over 27.9 µM; in the experiment with OVCAR-3 ovarian it was over 55.2 µM; in the experiment with HCT-15 colon, over 55.5 µM; in the experiment on NCI-H522 lung, 9.26 µM; with CAKI-1 renal it was over 65.7 µM. In the experiment on NCI-H23 lung, this compound registered a TGI of 15.4 µM.
For `Nc1ccn(CCCC(c2ccccc2)P(=O)(O)O)c(=O)n1` (centres undefined), the TGI in the experiment on SNB-19 CNS, with SR leukemia, with OVCAR-3 ovarian, in the experiment with HCT-15 colon, in the experiment with NCI-H522 lung and in the experiment with CAKI-1 renal was over 100 µM throughout. This compound yielded a TGI in the experiment on NCI-H23 lung of over 100 µM.
As to `CCOC(=O)C1=C(C)N(c2ccc(Cl)cc2)C2(O)C=CC(Nc3ccc(Cl)cc3)=C3C(=O)N(c4ccccc4)C(=O)C312` (centres undefined), the TGI in the experiment with SNB-19 CNS is 52.3 µM; in the experiment on SR leukemia it was over 100 µM; with OVCAR-3 ovarian it was 2.09 µM; with MDA-MB-231 breast it was 35.2 µM; with HCT-15 colon, 16.3 µM; in the experiment with NCI-H522 lung it was 5.25 µM. For the same compound, the TGI in the experiment on CAKI-1 renal is 13.5 µM; with NCI-H23 lung, 20 µM; in the experiment with MCF7 breast, 9.3 µM.
